According to PMC7582876, “Antiproliferative Properties of a Few Auranofin-Related Gold(I) and Silver(I) Complexes in Leukemia Cells and their Interferences with the Ubiquitin Proteasome System” (Molecules, 2020):

What was measured:
CEM/ADR5000 cells = test: Resazurin cytotoxicity assay, multidrug-resistant CEM/ADR5000 leukemia cells; assay type: cell-based, human; details: for IC50: cell growth, resazurin assay, 72 h incubation, IC50 ± SD, n = 3; for Degree of Resistance: ratio of IC50 of CEM/ADR5000 cells divided by IC50 of CCRF-CEM cells
Procedure: Drug-sensitive CCRF-CEM and multidrug-resistant (MDR) P-glycoprotein (P-gp)-over-expressing CEM/ADR5000 leukemic cells were kindly provided by Prof. Axel Sauerbrey (Department of Pediatrics, University of Jena, Germany). Cells were cultured in RPMA1640 medium including 10% fetal bovine serum (FBS) and 1% penicillin (1000 U/mL)/streptomycin (100 µg/mL) (Life Technologies, Darmstadt, Germany). Doxorubicin (5000 ng/mL) was added to maintain overexpression of P-gp (MDR1 and ABCB1) in CEM/ADR5000 cells. Doxorubicin was obtained from the University Pharmacy of the University Medical Center Mainz. CEM/ADR5000 cells display a more than 1000-fold resistance to doxorubicin [27] and are therefore a suitable model to identify novel drugs without or very low cross-resistance.
The cytotoxic effects of the compounds solved in DMSO (Sigma-Aldrich, Taufkirchen, Germany) were tested by the resazurin assay. This assay is based on reduction of the indicator dye, resazurin, to the highly fluorescent resorufin by viable cells. Cells lethally damaged by cytotoxic compounds rapidly lose the enzymatic capability to reduce non-fluorescent resazurin to the highly fluorescent resorufin. As the reductive potential happens in a dose-dependent manner, this chemical reaction can be exploited to quantitatively determine the cytotoxic potential of investigational compounds and to measure dose-response relationships. With increasing concentrations of a cytotoxic drug, the fluorescence signal fades out. Aliquots of 10,000 cells/100 µL cells were seeded into 96-well plates (Thermo-Scientific, Dreieich, Germany) and immediately treated with various concentrations of each compound. After 72 h incubation at 37 °C, 20 µL resazurin 0.01% w/v solution (Invitrogen, Dreieich, Germany) were added to each well, and the plates were maintained at 37 °C for 4 h. Fluorescence was measuring by an Infinite M2000 Proplate reader (Tecan, Crailsheim, Germany) with an excitation wavelength of 544 nm and an emission wavelength of 590 nm. Each experiment was done at least three times with six replicates each. The viability was analyzed in comparison with untreated cells. […] It is a well-established measure to determine the cytotoxic potential of anticancer drugs. The IC50 values were calculated from a calibration curve by linear regression using Microsoft Excel.

[1] = molecular target: T1, peptidyl-glutamyl peptide-hydrolyzing (PGPH or caspase-like C-L) activity of human 20S proteasome (Homo sapiens, UniProt P28072); test: Inhibition of peptidyl-glutamyl peptide-hydrolyzing activity of 20S proteasome (Cbz-Leu-Leu-Glu-AMC); assay type: biochemical; details: for PGPH (C-L) inhibition at 10 µM: over 10 min; for IC50: 10 min, no pre-incubation, 30 °C
T1 construct: 20S proteasome, isolated and purified from human erythrocytes; purchased Biomol GmbH, Hamburg, Germany; host or cells: human erythrocytes (native complex)
Procedure: 20S proteasome, isolated and purified from human erythrocytes, was obtained from a commercial source (Biomol GmbH, Hamburg, Germany), as well as the peptidic substrates (Bachem, Bubendorf, Switzerland) Suc-Leu-Leu-Val-Tyr-AMC, Boc-Leu-Arg-Arg-AMC and Cbz-Leu-Leu-Glu-AMC for ChT-L, T-L and PGPH (C-L) activity of the enzyme, respectively. The three distinct proteolytic activities of the 20S proteasome were measured by monitoring the hydrolysis of the substrates and detecting the fluorescence of the common product released, i.e., 7-amino-4-methyl coumarin (7-AMC), by means of an Infinite 200 PRO microplate reader (Tecan, Männedorf, Switzerland) at 30 °C with a 380-nm excitation filter and a 460-nm emission filter. All gold and silver complexes were tested against the three proteolytic activities of the 20S proteasome and against Cat-B, Cat-L and bovine pancreatic α-chymotrypsin at 10 µM concentrations over a period of 10 min using an equivalent amount of DMSO as a negative control. […] The IC50 values were calculated with the program GraFit® using the two-parameter equation. More detailed experimental protocols for the assays against each proteolytic activity of the 20S proteasome, as well as against bovine pancreatic α-chymotrypsin, are already reported elsewhere (see also Supplementary Materials). Cat-B and Cat-L were purchased from Calbiochem, Darmstadt, Germany, and the related assays were performed as previously described. The employed fluorogenic substrate for both cysteine proteases was Cbz-Phe-Arg-AMC (80 µM for Cat-B; 5 µM for Cat-L). […]
Inhibition assay for the Post-Glutamyl Peptide Hydrolyzing Activity of the 20S
with the test compound present at 10 µM (screening assay) or variable concentrations. The
reaction buffer consisted of 50 mM Tris buffer pH 7.5 containing 25 mM KCl, 10 mM NaCl,
1 mM MgCl2, 0.03% SDS, 5% DMSO. Product release from substrate hydrolysis ([…])
was monitored continuously over a period of 10 min.

[2] = molecular target: T2, bovine pancreatic α-chymotrypsin (Bos taurus, UniProt P00766); test: Bovine pancreatic α-chymotrypsin inhibition screening; assay type: biochemical; details: over 10 min
T2 construct: from tissue; host or cells: bovine pancreas (from the enzyme's name only)
Procedure: 20S proteasome, isolated and purified from human erythrocytes, was obtained from a commercial source (Biomol GmbH, Hamburg, Germany), as well as the peptidic substrates (Bachem, Bubendorf, Switzerland) Suc-Leu-Leu-Val-Tyr-AMC, Boc-Leu-Arg-Arg-AMC and Cbz-Leu-Leu-Glu-AMC for ChT-L, T-L and PGPH (C-L) activity of the enzyme, respectively. The three distinct proteolytic activities of the 20S proteasome were measured by monitoring the hydrolysis of the substrates and detecting the fluorescence of the common product released, i.e., 7-amino-4-methyl coumarin (7-AMC), by means of an Infinite 200 PRO microplate reader (Tecan, Männedorf, Switzerland) at 30 °C with a 380-nm excitation filter and a 460-nm emission filter. All gold and silver complexes were tested against the three proteolytic activities of the 20S proteasome and against Cat-B, Cat-L and bovine pancreatic α-chymotrypsin at 10 µM concentrations over a period of 10 min using an equivalent amount of DMSO as a negative control. […]. The IC50 values were calculated with the program GraFit® using the two-parameter equation. More detailed experimental protocols for the assays against each proteolytic activity of the 20S proteasome, as well as against bovine pancreatic α-chymotrypsin, are already reported elsewhere (see also Supplementary Materials). Cat-B and Cat-L were purchased from Calbiochem, Darmstadt, Germany, and the related assays were performed as previously described. The employed fluorogenic substrate for both cysteine proteases was Cbz-Phe-Arg-AMC (80 µM for Cat-B; 5 µM for Cat-L).
Assay for Bovine Pancreatic α-Chymotrypsin Inhibition
The enzyme ([…]) was incubated at 20 °C with the test compound present at 10
µM (screening assay). The reaction buffer consisted of 50 mM Tris buffer pH 8.0
containing 100 mM NaCl, 5 mM EDTA and 7.5% DMSO. Product release from substrate
hydrolysis ([…] final concentration, Suc-Leu-Leu-Val-Tyr-AMC from Bachem) was
determined over a period of 10 min. […]

## CC[PH](CC)(CC)[Ag][Br] [Ag(PEt3)Br]
CEM/ADR5000 cells
  IC50: 3890 ± 700 nM
  Degree of Resistance: 2.59
[1]
  PGPH (C-L) inhibition at 10 µM: n.i.
[2]
  Bovine Pancreatic α-Chymotrypsin Inhibition (%) at 10 µM: n.i.

## CC[PH](CC)(CC)[Ag][Cl] [Ag(PEt3)Cl]
CEM/ADR5000 cells
  IC50: 2640 ± 480 nM
  Degree of Resistance: 1.94
[1]
  PGPH (C-L) inhibition at 10 µM: n.i.
[2]
  Bovine Pancreatic α-Chymotrypsin Inhibition (%) at 10 µM: n.i.

## CC[PH](CC)(CC)[Ag][I] [Ag(PEt3)I]
CEM/ADR5000 cells
  IC50: 1460 ± 150 nM
  Degree of Resistance: 1.14
[1]
  PGPH (C-L) inhibition at 10 µM: n.i.
[2]
  Bovine Pancreatic α-Chymotrypsin Inhibition (%) at 10 µM: n.i.

## CCP(CC)CC.[Br][Au] [Au(PEt3)Br]
CEM/ADR5000 cells
  IC50: 270 ± 50 nM
  Degree of Resistance: 0.96
[1]
  IC50: > 10 µM
[2]
  Bovine Pancreatic α-Chymotrypsin Inhibition (%) at 10 µM: n.i.

## CCP(CC)CC.[Au+].[Cl-] [Au(PEt3)Cl]
CEM/ADR5000 cells
  IC50: 260 ± 40 nM
  Degree of Resistance: 0.74
[1]
  IC50: > 10 µM
[2]
  Bovine Pancreatic α-Chymotrypsin Inhibition (%) at 10 µM: n.i.

## CC[P](CC)(CC)[Au][I] [Au(PEt3)I]
CEM/ADR5000 cells
  IC50: 280 ± 80 nM
  Degree of Resistance: 0.87
[1]
  IC50: > 10 µM
[2]
  Bovine Pancreatic α-Chymotrypsin Inhibition (%) at 10 µM: n.i.

## CCP(CC)CC.CCP(CC)CC.O=[N+]([O-])[O-].[Ag+] [[Ag(PEt3)2]NO3]
CEM/ADR5000 cells
  Degree of Resistance: 3.05
[1]
  PGPH (C-L) inhibition at 10 µM: n.i.
[2]
  Bovine Pancreatic α-Chymotrypsin Inhibition (%) at 10 µM: n.i.

## CC(=O)OC[C@H]1O[C@@H]([S-])[C@H](OC(C)=O)[C@@H](OC(C)=O)[C@@H]1OC(C)=O.CCP(CC)CC.[Au+] [auranofin, Auranofin]
CEM/ADR5000 cells
  IC50: 280 ± 60 nM
  Degree of Resistance: 1.27
[1]
  PGPH (C-L) inhibition at 10 µM: n.i.
[2]
  Bovine Pancreatic α-Chymotrypsin Inhibition (%) at 10 µM: n.i. ^a
